Source: ChEMBL document CHEMBL3621138, “Aminothiazoles: Hit to lead development to identify antileishmanial agents” (Eur J Med Chem, 2015)

Columns and labels:
[1] = Metabolic stability in golden Syrian hamster liver microsomes assessed as drug metabolism at 0.5 uM incubated for 30 mins in presence of NADPH; assay type: ADME, Mesocricetus auratus; conditions: read-out: Drug metabolism
[2] = Metabolic stability in CD1 mouse liver microsomes assessed as drug metabolism at 0.5 uM incubated for 30 mins in presence of NADPH; assay type: ADME; conditions: read-out: Drug metabolism
[3] = Cmax in Swiss Albino mouse at 50 mg/kg, po by LC-MS/MS method; assay type: ADME, organism-based; design: dose 50 mg/kg, route oral; conditions: in vivo
[4] = Tmax in Swiss Albino mouse at 50 mg/kg, po by LC-MS/MS method; assay type: ADME, organism-based; conditions: in vivo
[5] = AUClast in Swiss Albino mouse at 50 mg/kg, po by LC-MS/MS method; assay type: ADME, organism-based; design: dose 50 mg/kg, time 0 - last, route oral; conditions: in vivo
[6] = Tmax in Swiss Albino mouse at 25 mg/kg, po by LC-MS/MS method; assay type: ADME, organism-based; conditions: in vivo
[7] = Cmax in Swiss Albino mouse at 1 mg/kg, iv by LC-MS/MS method; assay type: ADME, organism-based; design: dose 1 mg/kg, route intravenous; conditions: in vivo
[8] = Cmax in Swiss Albino mouse at 25 mg/kg, po by LC-MS/MS method; assay type: ADME, organism-based; design: dose 25 mg/kg, route oral; conditions: in vivo
[9] = AUClast in Swiss Albino mouse at 1 mg/kg, iv by LC-MS/MS method; assay type: ADME, organism-based; design: dose 1 mg/kg, route intravenous, time 0 - last; conditions: in vivo
[10] = AUClast in Swiss Albino mouse at 25 mg/kg, po by LC-MS/MS method; assay type: ADME, organism-based; design: dose 25 mg/kg, route oral, time 0 - last; conditions: in vivo
[11] = AUC (infinity) in Swiss Albino mouse at 25 mg/kg, po by LC-MS/MS method; assay type: ADME, organism-based; design: dose 25 mg/kg, time infinity, route oral; conditions: in vivo
[12] = AUC (infinity) in Swiss Albino mouse at 1 mg/kg, iv by LC-MS/MS method; assay type: ADME, organism-based; design: dose 1 mg/kg, time infinity, route intravenous; conditions: in vivo
[13] = Terminal half-life in Swiss Albino mouse at 1 mg/kg, iv by LC-MS/MS method; assay type: ADME, organism-based; conditions: in vivo, read-out: beta t1/2 (converted)
[14] = Clearance in Swiss Albino mouse at 1 mg/kg, iv by LC-MS/MS method; assay type: ADME, organism-based; conditions: in vivo, read-out: CLH
[15] = Volume of distribution at steady state in Swiss Albino mouse at 1 mg/kg, iv by LC-MS/MS method; assay type: ADME, organism-based; conditions: in vivo, read-out: Vdss
[16] = Oral bioavailability in Swiss Albino mouse at 1 mg/kg by LC-MS/MS method; assay type: ADME, organism-based; conditions: in vivo

SMILES	metabolised at 0.5 h, 0.5 µM [1] [%]	metabolised at 0.5 h, 0.5 µM [2] [%]	also measured
Cc1ccc(Nc2nc(-c3ccccn3)cs2)cc1	100	100	Cmax [3]: 108 ng/mL; Tmax [4]: 15 min; AUC(0-t) [5]: 99.8 ng·h/mL
COc1cccc(-c2csc(Nc3ccc(Cl)cn3)n2)n1	100	75	–
FC(F)(F)c1ccc(-c2nc(Nc3ccc(Cl)cn3)sc2Cl)nc1	63	30	–
Clc1ccc(Nc2nc(-c3ccccn3)c(Cl)s2)nc1	100	93	–
Clc1ccc(Nc2nc(-c3cccnn3)c(Cl)s2)nc1	99	70	–
COc1ccc(Nc2nc(-c3ncccn3)cs2)cc1	81	99	–
Clc1ccc(Nc2nc(-c3ncccn3)cs2)nc1	100	99	–
CCOc1ccc(-c2csc(Nc3ccc(Cl)cn3)n2)nc1	10	62	Tmax [6]: 15 min; Cmax [7]: 885 ng/mL; Cmax [8]: 167 ng/mL; AUC(0-t) [9]: 178 ng·h/mL; AUC(0-t) [10]: 362 ng·h/mL; AUC(0-inf) [11]: 377 ng·h/mL; AUC(0-inf) [12]: 183 ng·h/mL; half-life [13]: 28.8 min; clearance [14]: 91 mL/min/kg; Vd [15]: 1.99 L/kg; bioavailability [16]: 8%
Clc1ccc(Nc2nc(-c3cnccn3)cs2)nc1	99	99	–
COc1ccc(Nc2nc(-c3ccccn3)cs2)cc1OC	100	100	–
Cc1ccc(Nc2nc(-c3ccccn3)cs2)nc1	100	100	–
Clc1ccc(Nc2nc(-c3cnccn3)c(Cl)s2)nc1	78	47	–
COc1ccnc(-c2csc(Nc3ccc(Cl)cn3)n2)c1	100	97	–
CCOc1ccc(-c2nc(Nc3ccc(Cl)cn3)sc2Cl)nc1	87	56	–
COc1ccc(Nc2nc(-c3ccccn3)cs2)cc1	100	100	–
FC(F)(F)c1ccc(-c2csc(Nc3ccc(Cl)cn3)n2)nc1	98	63	–
COc1ccc(-c2nc(Nc3ccc(Cl)cn3)sc2Cl)nc1	100	92	–

SMILES	metabolised at 0.5 h, 0.5 µM [1] [%]	metabolised at 0.5 h, 0.5 µM [2] [%]	also measured
COc1ccc(Nc2nc(-c3cccnc3)cs2)cc1	96	96	–
Clc1ccc(Nc2nc(-c3ccccn3)cs2)nc1	100	100	–
Cc1ccc(Nc2nc(-c3ccccn3)cs2)cc1C	100	100	–
Cc1ccnc(Nc2nc(-c3ccccn3)cs2)c1	99	99	–
Cc1cccc(Nc2nc(-c3ccccn3)cs2)n1	100	100	–
COc1ccc(Nc2nc(-c3ccncc3)cs2)cc1	98	83	–
Clc1ccc(Nc2nc(-n3cccn3)cs2)nc1	100	100	–
COc1ccnc(-c2nc(Nc3ccc(Cl)cn3)sc2Cl)c1	100	90	–
Clc1ccc(Nc2nc(-c3ncccn3)c(Cl)s2)nc1	99	71	–
Clc1ccc(Nc2nc(-c3cccnn3)cs2)nc1	99	95	–
CN(C)c1ccc(Nc2nc(-c3ccccn3)cs2)cc1	99	98	–
COc1ccc(Nc2nc(-c3ccccn3)cs2)nc1	99	100	–
c1ccc(Nc2nc(-c3ccccn3)cs2)nc1	100	100	–
c1ccc(-c2csc(Nc3ccc4c(c3)OCCO4)n2)nc1	100	99	–
COc1ccc(-c2csc(Nc3ccc(Cl)cn3)n2)nc1	100	97	–
Cc1cccnc1Nc1nc(-c2ccccn2)cs1	100	100	–
